The values below come from patent US7208572B2, “Leptin-related peptides” (Albany Medical College, priority 1998, dated 2007).

Test [1] in a line: Epitope mapping: body weight and food intake in female C57BL/6J ob/ob mice, 7 daily ip injections. The format is in vivo, mouse. As to conditions: 1 mg/day ip, 7 days. Here is the method:
Animal procedures. Feeding and weighing schedules, as well as peptide administration protocols, are as described in EXAMPLE 8, supra.
Statistical analysis. Changes in body weight and differences in food intake between peptide-treated and vehicle-injected control mice were analyzed by analysis of variance (ANOVA) and considered significant when P<0.05.
Female ob/ob mice (n=6 per group) were given a single ip injection of 0.2 ml of vehicle (PBS, pH 7.2) or leptin-related synthetic peptide amide in 0.2 ml PBS for 7 consecutive days. Daily changes in body weight compared to pretreatment weights in both vehicle-injected control and peptide-treated mice are shown in FIG. 4. […] There was no evidence of weight loss in response to peptide treatment.

Another test deals with T1, OB-Rb (Mus musculus, UniProt P48356).
T1 construct: full-length leptin receptor (OB-Rb), the receptor isoform predominantly expressed in the hypothalamus; expressed in transfected cells; host or cells: GT1-7
T1 sequence (P48356 22-1162): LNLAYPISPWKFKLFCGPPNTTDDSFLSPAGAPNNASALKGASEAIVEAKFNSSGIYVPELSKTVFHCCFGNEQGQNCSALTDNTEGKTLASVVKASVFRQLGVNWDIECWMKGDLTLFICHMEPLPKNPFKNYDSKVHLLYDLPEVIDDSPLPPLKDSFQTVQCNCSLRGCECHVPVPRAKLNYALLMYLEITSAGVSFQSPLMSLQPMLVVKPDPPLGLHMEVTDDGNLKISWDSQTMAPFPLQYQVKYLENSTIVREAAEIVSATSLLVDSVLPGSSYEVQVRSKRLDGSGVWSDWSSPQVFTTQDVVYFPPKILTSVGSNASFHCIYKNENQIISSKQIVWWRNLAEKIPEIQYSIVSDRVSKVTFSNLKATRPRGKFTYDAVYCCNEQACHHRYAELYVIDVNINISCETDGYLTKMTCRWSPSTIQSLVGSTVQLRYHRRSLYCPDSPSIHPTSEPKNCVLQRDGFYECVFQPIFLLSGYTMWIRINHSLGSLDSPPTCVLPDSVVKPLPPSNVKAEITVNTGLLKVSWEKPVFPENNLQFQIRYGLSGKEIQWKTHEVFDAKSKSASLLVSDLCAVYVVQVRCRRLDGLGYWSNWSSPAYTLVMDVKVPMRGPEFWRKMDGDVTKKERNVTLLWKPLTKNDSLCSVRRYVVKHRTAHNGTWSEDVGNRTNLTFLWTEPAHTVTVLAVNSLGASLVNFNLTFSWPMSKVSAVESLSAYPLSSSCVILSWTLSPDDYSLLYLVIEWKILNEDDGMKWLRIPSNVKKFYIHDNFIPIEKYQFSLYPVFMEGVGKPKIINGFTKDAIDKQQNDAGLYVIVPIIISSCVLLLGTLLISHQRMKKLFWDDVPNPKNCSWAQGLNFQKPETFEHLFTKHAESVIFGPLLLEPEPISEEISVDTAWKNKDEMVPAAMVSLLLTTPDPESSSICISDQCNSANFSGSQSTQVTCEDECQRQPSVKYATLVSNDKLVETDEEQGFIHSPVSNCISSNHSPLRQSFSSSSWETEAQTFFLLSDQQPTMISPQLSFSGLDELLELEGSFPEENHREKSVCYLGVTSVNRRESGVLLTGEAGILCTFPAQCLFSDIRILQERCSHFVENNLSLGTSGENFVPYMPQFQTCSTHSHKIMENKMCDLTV
Kind of test: SEAP reporter gene signal transduction assay in GT1–7 cells cotransfected with HRRE-SEAP and OB-Rb. The format is cell-based. The conditions noted are these: peptide 1 to 250 uM, 24 h. The text has this: Initial experiments to determine the mechanism of action of LEP(116–130) utilized two highly sensitive in vitro bioassays routinely used to assess leptin binding and receptor activation (see e.g., White, et al., 1997. Proc. Natl. Acad. Sci. U.S.A. 94: 10657–10662). An alkaline phosphatase (“AP”)-leptin (“OB”) fusion protein (“AP-OB”) was used to measure inhibition of leptin binding in the absence or presence of recombinant mouse leptin (positive control) or peptide, by COS-7 cells transfected with the long (signaling) form of the mouse OB receptor (“OB-RL”). Signal transduction assays were done in GT1–7 cells cotransfected with AP reporter and OB-RL constructs. Secreted alkaline phosphatase (“SEAP”) activity in response to stimulation with mouse leptin or peptide was measured by chemiluminescence.
Two days after transfection, the cells were stimulated with mouse leptin or leptin-related synthetic peptides for 24 hours. Growth media were harvested and SEAP activity was determined by chemiluminescence as described for AP-OB binding studies.
COS-7 and GT1–7 cells were cultured in DMEM supplemented with 10% fetal bovine serum, and transfected by the lipofectamine method. […] Supernatants were collected and SEAP reporter activities were measured by chemiluminescence using the GreatEscApe alkaline phosphatase detection kit as described by the manufacturer (CLONTECH). […]
A general note: In a reporter assay the amount or activity of a reporter protein is the signal.

Consider “A L S R L Q G S L Q D I L Q Q (ALSRLQGSLQDILQQ) [LEP(146–160)]”, for which, in test [1], the Cumulative food intake is 40.5 ± 1.0 gm/mouse, the “Percent heavier (+) or lighter (−) than initial weight” value was “+28.0%” and the “Weight gain (+) or loss (−)” value is reported as “+6.8 g”. The “Stimulation of SEAP reporter activity” value with OB-Rb is on record as “incapable of inducing an increase in reporter gene activity”.
